Experimental data: ChEMBL document CHEMBL5625211, “Neutral sphingomyelinase 2 inhibitors based on the pyrazolo[1,5-a]pyrimidin-3-amine scaffold” (Eur J Med Chem, 2023); call rule not given here

Key:
[1] = Drug concentration in Wistar rat plasma at 10 mg/kg, po measured after 30 mins by LC-MS/MS method; assay type: ADME, organism-based
[2] = Drug concentration in Wistar rat brain at 10 mg/kg, po measured after 30 mins by LC-MS/MS method; assay type: ADME, organism-based; conditions: in vivo, 0.5 h

concentration at 0.5 h [1]: > 2000 nM
Drug uptake [2]: Active
Compound: CN(C)c1cnn2ccc(N3CCOCC3)nc12
